In ChEMBL document CHEMBL1127584, “Crystal-structure-based design and synthesis of novel C-terminal inhibitors of HIV protease” (J Med Chem, 1994):

The compounds below were run against Human immunodeficiency virus type 1 protease (Human immunodeficiency virus 1, UniProt Q72874) (assay: Inhibition of recombinant HIV-1 protease).
`C[C@H](N)C(=O)N[C@@H](C)C(=O)N[C@@H](Cc1ccccc1)[C@@H](O)CCC(=O)NC(c1ccccc1)c1cc2ccccc2[nH]1` (some centres undefined) showed a Ki of 200 nM.
Compound `NC(=O)C[C@H](NC(=O)c1ccc2ccccc2n1)C(=O)NC(Cc1ccccc1)[C@@H](O)CCC(=O)NC(c1cccc(C(F)(F)F)c1)c1cc2ccccc2[nH]1` (some centres undefined) has a Ki of 33 nM.
For `NC(=O)C[C@H](NC(=O)c1ccc2ccccc2n1)C(=O)NC(Cc1ccccc1)[C@@H](O)CCC(=O)NC(c1ccccc1)c1cc2ccccc2[nH]1` (some centres undefined), the Ki was 43 nM.
`NC(=O)C[C@H](NC(=O)c1ccc2ccccc2n1)C(=O)NC(Cc1ccccc1)[C@@H](O)C[C@@H](Cc1ccccc1)C(=O)NC(c1ccccc1)c1cc2ccccc2[nH]1` (some centres undefined) was tested, and the Ki was 1280 nM.
`NC(=O)C[C@H](NC(=O)c1ccc2ccccc2n1)C(=O)NC(Cc1ccccc1)[C@@H](O)CCC(=O)NC(c1ccccc1)c1nc2ccccc2[nH]1` (some centres undefined) showed a Ki of 480 nM.
Work on `NC(=O)C[C@H](NC(=O)c1ccc2ccccc2n1)C(=O)NC(Cc1ccccc1)[C@@H](O)CCC(=O)NC(c1cc2ccccc2[nH]1)C1CCCCC1` (some centres undefined) yielded a Ki of 180 nM.
Work on `COC(=O)[C@@H](CC(=O)[C@@H](NC(=O)CC[C@H](O)[C@H](Cc1ccccc1)NC(=O)[C@H](C)NC[C@H](C)N)C(C)C)C(C)C` yielded a Ki of 18 nM.
Compound `Cc1cccc(C(NC(=O)CC[C@H](O)C(Cc2ccccc2)NC(=O)[C@H](CC(N)=O)NC(=O)c2ccc3ccccc3n2)c2cc3ccccc3[nH]2)c1` (some centres undefined) has a Ki of 39 nM.
Compound `CC(C)CC(=O)N[C@H](C(=O)N[C@H](C(=O)N[C@@H](CC(C)C)[C@@H](O)CC(=O)N[C@@H](C)C(=O)N[C@@H](CC(C)C)[C@@H](O)CC(=O)O)C(C)C)C(C)C` [PEPSTATIN] has a Ki of 3100 nM.
